Laboratory results taken from patent publication US20230348401A1, “Inhibitors of Glucose-6-phosphate Dehydrogenase and Uses Thereof” (The Trustees of Princeton University, priority 2020, published 2023).

Tests used:
[1] = system: CD4+ regulatory T cells (Treg); test: Treg assays; assay type: cell-based; conditions: CD3/CD28 in the presence of TGF-β
Method: Spleen and peripheral lymph nodes were harvested and processed to single cell suspensions of lymphocytes. Red blood cells were removed with hypotonic lysis. We used magnetic beads (Miltenyi Biotec, San Diego, CA) for isolation of Tconv (CD4^+CD25^-), Treg (CD4^+CD25^+), and antigen presenting cells (CD90.2^-). For cell culture medium, we used RPMI 1640 medium supplemented with 10% fetal bovine serum (FBS), penicillin (100 U/mL), streptomycin (100 µg/mL), and 55 µM β-mercaptoethanol Treg suppression and iTreg polarization were conducted as previously reported. For Treg suppression assays, Tconv were purified and stimulated with irradiated antigen presenting cells plus CD3ε mAb (1 µg/mL, BD Pharmingen). To assess proliferation, Tconv cells were labeled with carboxyfluorescein succinimidyl ester (CFSE), and Treg cells with CellTrace Violet. After 72 h, proliferation of Tconv and Treg cells was determined by flow cytometric analysis of CFSE and CellTrace Violet dilution, respectively. For conversion to Foxp3^+ Tregs, Tconv cells were incubated for 3-5 days with CD3ε/CD28 mAb beads, plus TGF-β (3 ng/mL) and IL-2 (25 U/mL), and analyzed by flow cytometry for Foxp3+ iTreg. Flow cytometry data was captured using Cytoflex (Beckman Coulter, Brea, CA) and analyzed using the FlowJo 10.2 software.

[2] = system: mouse neutrophils; test: Neutrophil oxidative burst assay (mouse); assay type: cell-based; conditions: PMA, 50 µM
Method: Murine neutrophils were isolated from 8-12-week old C56BL/6 mice. Mice were bred and maintained according to the University of Wisconsin Institutional Animal Care and Use Committee (Protocol No. M006219). Mice were euthanized by cervical dislocation, and bone marrow cells were harvested from femur and tibia within 30 minutes. Cell suspensions were passed through a 70-µm cell strainer. Neutrophils were prepared using a negative selection kit (EasySep Mouse Neutrophil Enrichment Kit, Stem Cell Technologies), following the manufacturer’s instructions. Cells were cultured in RPMI 1640 media supplemented with 10% heat-inactivated FBS, 100 U/ml penicillin, 100 µg/ml streptomycin, 5 mM HEPES, and 2 mM EDTA. To stimulate neutrophils, 100 nM phorbol 12-myristate 13-acetate (PMA) (Cayman Chemical) was added to the media; metabolites were extracted after 30 minutes of stimulation.
Suspended neutrophils were plated in culture wells pre-coated with CELL-TAK™ (Corning), spun at 200 × g for 1 minute with minimal acceleration/deceleration, and then incubated for 1 hour at 37° C. Murine neutrophils were plated at 2×10^5 cells/well in RPMI 1640 media without sodium bicarbonate. […] Oxidative burst was stimulated with PMA (100 nM, Cayman Chemical); oxygen consumption rate was measured using the XF-96e extracellular flux analyzer (Seahorse Bioscience).

[3] = system: human neutrophils; test: Neutrophil oxidative burst assay (human); assay type: cell-based; conditions: PMA, 50 µM
Method: Human neutrophils were isolated from 8 ml of blood collected from healthy donors following the protocol approved by the University of Wisconsin Institutional Review Board (Protocol No. 2019-1031-CP001). Neutrophils were purified using the MACSxpress Whole Blood Neutrophil Isolation Kit (Miltenyi Biotec 130-104-434) followed by erythrocyte depletion (Miltenyi Biotec 130-098-196) according to the manufacturer’s instructions.
Suspended neutrophils were plated in culture wells pre-coated with CELL-TAK™ (Corning), spun at 200 × g for 1 minute with minimal acceleration/deceleration, and then incubated for 1 hour at 37° C. Murine neutrophils were plated at 2×10^5 cells/well in RPMI 1640 media without sodium bicarbonate. Human neutrophils were plated at 5×10^4 cells/well in RPMI 1640 media supplemented with 0.1% human serum albumin. Inhibitor (G6PDi-1, 50 µM) or vehicle control were added just prior to starting the assay. Mouse neutrophils were also treated with rotenone (0.5 µM, BioVision) + antimycin A (0.5 µM, BioVision) at t = 20 minutes. Oxidative burst was stimulated with PMA (100 nM, Cayman Chemical); oxygen consumption rate was measured using the XF-96e extracellular flux analyzer (Seahorse Bioscience).

[4] = target: T1, G6PD (Homo sapiens, UniProt P11413); test: G6PD enzymatic activity by LC-MS (6-pg production); assay type: biochemical; parameters: Partially truncated human G6PD (residues 28-515, Uniprot ID P11413); His6 with thrombin cleavage site (N, cleaved yes); made in house; host or cells: Escherichia coli BL21(DE3)pLysS; conditions: orthogonal LC-MS assay
Method: Aliquots of reaction mixture were collected at indicated time points and rapidly quenched by diluting (1:5) into methanol precooled on dry ice. The mixtures were centrifuged at 13,000 rcf for 20 minutes at 4° C., and the resulting supernatants were diluted (1:20) into 40:40:20 methanol/ acetonitrile/ water and analyzed by LC-MS.

[5] = target: T1, G6PD; test: G6PD enzymatic activity by diaphorase-coupled assay

T1 sequence (P11413 28-515): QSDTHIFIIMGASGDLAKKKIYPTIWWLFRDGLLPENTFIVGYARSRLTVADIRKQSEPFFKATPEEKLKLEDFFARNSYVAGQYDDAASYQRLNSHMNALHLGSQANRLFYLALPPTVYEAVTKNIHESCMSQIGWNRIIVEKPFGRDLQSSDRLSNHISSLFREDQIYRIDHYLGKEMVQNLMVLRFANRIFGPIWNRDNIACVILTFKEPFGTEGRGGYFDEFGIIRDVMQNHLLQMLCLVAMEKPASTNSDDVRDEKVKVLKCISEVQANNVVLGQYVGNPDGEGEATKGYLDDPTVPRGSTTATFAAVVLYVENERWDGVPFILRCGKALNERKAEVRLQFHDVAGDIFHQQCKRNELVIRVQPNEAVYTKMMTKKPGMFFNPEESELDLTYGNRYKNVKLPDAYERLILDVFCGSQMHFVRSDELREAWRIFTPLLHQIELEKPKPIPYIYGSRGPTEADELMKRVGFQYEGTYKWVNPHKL

N#Cc1cc(Nc2ncc3c(n2)CCCCC3=O)cs1 [Compound 2, 4-([5-oxo-6H,7H,8H,9H-cyclohepta[d]pyrimidin-2-yl]amino)thiophene-2-carbonitrile]
formation and proliferation of Foxp3+ cells [1]: unaffected | oxidative burst (oxygen consumption rate) [2]: decreased oxidative burst | oxidative burst (oxygen consumption rate) [3]: decreased oxidative burst | 6-pg production by recombinant human G6PD [4]: demonstrated in vitro inhibition of G6PD activity | mode of binding to G6PD ([5]; competition assays against both substrates, in vitro dilution experiments): non-competitively and reversibly | IC50 ([5]; read-out: IC50 (half-maximal inhibitory constant) against human G6PD, coupled enzymatic assay, recombinant human enzyme): 70 nM
